Experimental data from paper PMC9293634, “Conformational flexibility in carbapenem hydrolysis drives substrate specificity of the class D carbapenemase OXA-24/40” (The Journal of Biological Chemistry, 2022).

Key:
OXA-24/40 [1] = molecular target: T1, OXA-24/40 (Acinetobacter baumannii, UniProt Q8RLA6, K84D); experiment: X-ray crystal structure ([…] Å), intact β-lactam; assay type: binding
T1 construct: gene blaOXA-33

OXA-24/40 [2] = molecular target: T1, OXA-24/40; experiment: X-ray crystal structure of acyl-enzyme ([…] Å); assay type: binding

T1 sequence (Q8RLA6 32-275 K84D): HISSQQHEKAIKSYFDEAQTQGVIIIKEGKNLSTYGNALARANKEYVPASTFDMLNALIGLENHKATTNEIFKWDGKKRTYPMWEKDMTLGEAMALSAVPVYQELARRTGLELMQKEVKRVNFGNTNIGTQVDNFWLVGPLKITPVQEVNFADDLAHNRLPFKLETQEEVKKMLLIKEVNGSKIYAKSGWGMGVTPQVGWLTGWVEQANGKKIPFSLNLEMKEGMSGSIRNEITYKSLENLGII

Row | Compound | X-ray crystal structure (2.58 Å), intact β-lactam (OXA-24/40 [1]) | X-ray crystal structure of acyl-enzyme (2.28 Å) (OXA-24/40 [2])
1 | C[C@@H](O)[C@H]1C(=O)N2C(C(=O)O)=C(S[C@@H]3CN[C@H](C(=O)Nc4cccc(C(=O)O)c4)C3)[C@H](C)[C@H]12 [ertapenem] | In the K84D–ertapenem structure, ertapenem is bound as an intact β-lactam, yet in an unproductive binding mode | –
2 | C[C@@H](O)[C@H]1C(=O)N2C(C(=O)O)=C(SCCN=CN)C[C@H]12 [imipenem] | – | A predominant conformation for imipenem was observed in the K84D complex
